Reference: PubChem BioAssay (NCI)
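All cell lines were grown in 96-well plates and treated with compound for 48 hours. GI50 is the concentration that inhibits growth by half. TGI marks complete inhibition of growth.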

Assays:
Assay in all cases: inhibition of tumour cell growth, NCI panel, 48 h
SK-MEL-2 melanoma = system: SK-MEL-2 melanoma
UACC-257 melanoma = system: UACC-257 melanoma
TK-10 renal = system: TK-10 renal
MDA-MB-435 = system: MDA-MB-435
BT-549 breast = system: BT-549 breast
SW-620 colon = system: SW-620 colon
U251 CNS = system: U251 CNS
KM12 colon = system: KM12 colon
A549 NSCLC = system: A549 NSCLC
DU-145 prostate = system: DU-145 prostate
SK-MEL-28 melanoma = system: SK-MEL-28 melanoma
HT29 colon = system: HT29 colon
HCC-2998 colon = system: HCC-2998 colon
HS 578T breast = system: HS 578T breast
ACHN renal = system: ACHN renal
UACC-62 melanoma = system: UACC-62 melanoma
CAKI-1 renal = system: CAKI-1 renal
NCI-H460 lung = system: NCI-H460 lung
SF-539 CNS = system: SF-539 CNS
OVCAR-8 ovarian = system: OVCAR-8 ovarian
786-0 renal = system: 786-0 renal
RXF 393 renal = system: RXF 393 renal
SK-MEL-5 melanoma = system: SK-MEL-5 melanoma
NCI-H23 lung = system: NCI-H23 lung
M14 melanoma = system: M14 melanoma
COLO 205 colon = system: COLO 205 colon
OVCAR-4 ovarian = system: OVCAR-4 ovarian
SNB-19 CNS = system: SNB-19 CNS
LOX IMVI melanoma = system: LOX IMVI melanoma
MCF7 breast = system: MCF7 breast
SNB-75 CNS = system: SNB-75 CNS
MDA-MB-231 breast = system: MDA-MB-231 breast
RPMI-8226 leukemia = system: RPMI-8226 leukemia
OVCAR-3 ovarian = system: OVCAR-3 ovarian
HOP-92 NSCLC = system: HOP-92 NSCLC
EKVX NSCLC = system: EKVX NSCLC
NCI/ADR-RES ovarian = system: NCI/ADR-RES ovarian
PC-3 prostate = system: PC-3 prostate
SN12C renal = system: SN12C renal
NCI-H226 lung = system: NCI-H226 lung
CCRF-CEM leukemia = system: CCRF-CEM leukemia
K-562 leukemia = system: K-562 leukemia
T-47D breast = system: T-47D breast
SF-268 CNS = system: SF-268 CNS
OVCAR-5 ovarian = system: OVCAR-5 ovarian
HOP-62 NSCLC = system: HOP-62 NSCLC
UO-31 renal = system: UO-31 renal
SF-295 CNS = system: SF-295 CNS
HCT-15 colon = system: HCT-15 colon
SK-OV-3 ovarian = system: SK-OV-3 ovarian
NCI-H522 lung = system: NCI-H522 lung
MOLT-4 leukemia = system: MOLT-4 leukemia

O=S(=O)(/N=c1/scc(-c2ccccc2)n1-c1ccccc1)c1ccc(N2N=C3c4ccccc4CC3C2c2cccs2)cc1 (stereo not drawn)
GI50 (SK-MEL-2 melanoma): > 100 µM | TGI (SK-MEL-2 melanoma): > 100 µM | GI50 (UACC-257 melanoma): > 100 µM | TGI (UACC-257 melanoma): > 100 µM | GI50 (TK-10 renal): 32.7 µM | TGI (TK-10 renal): 75.3 µM | GI50 (MDA-MB-435): 38.7 µM | TGI (MDA-MB-435): > 100 µM | GI50 (BT-549 breast): 47.5 µM | TGI (BT-549 breast): > 100 µM | GI50 (SW-620 colon): 94.2 µM | TGI (SW-620 colon): > 100 µM | GI50 (U251 CNS): 31.2 µM | TGI (U251 CNS): > 100 µM | GI50 (KM12 colon): 32.1 µM | TGI (KM12 colon): > 100 µM | GI50 (A549 NSCLC): 57 µM | TGI (A549 NSCLC): > 100 µM | GI50 (DU-145 prostate): > 100 µM | TGI (DU-145 prostate): > 100 µM | GI50 (SK-MEL-28 melanoma): > 100 µM | TGI (SK-MEL-28 melanoma): > 100 µM | GI50 (HT29 colon): 82 µM | TGI (HT29 colon): > 100 µM | GI50 (HCC-2998 colon): 32.8 µM | TGI (HCC-2998 colon): 81.3 µM | GI50 (HS 578T breast): 60.6 µM | TGI (HS 578T breast): > 100 µM | GI50 (ACHN renal): 42.5 µM | TGI (ACHN renal): > 100 µM | GI50 (UACC-62 melanoma): 60.3 µM | TGI (UACC-62 melanoma): > 100 µM | GI50 (CAKI-1 renal): 73 µM | TGI (CAKI-1 renal): > 100 µM | GI50 (NCI-H460 lung): 95.1 µM | TGI (NCI-H460 lung): > 100 µM | GI50 (SF-539 CNS): > 100 µM | TGI (SF-539 CNS): > 100 µM | GI50 (OVCAR-8 ovarian): 47.2 µM | TGI (OVCAR-8 ovarian): > 100 µM | GI50 (786-0 renal): 64.2 µM | TGI (786-0 renal): > 100 µM | GI50 (RXF 393 renal): 98.2 µM | TGI (RXF 393 renal): > 100 µM | GI50 (SK-MEL-5 melanoma): 48 µM | TGI (SK-MEL-5 melanoma): > 100 µM | GI50 (NCI-H23 lung): 68 µM | TGI (NCI-H23 lung): > 100 µM | GI50 (M14 melanoma): 81.5 µM | TGI (M14 melanoma): > 100 µM | GI50 (COLO 205 colon): > 100 µM | TGI (COLO 205 colon): > 100 µM | GI50 (OVCAR-4 ovarian): > 100 µM | TGI (OVCAR-4 ovarian): > 100 µM | GI50 (SNB-19 CNS): > 100 µM | TGI (SNB-19 CNS): > 100 µM | GI50 (LOX IMVI melanoma): 32.4 µM | TGI (LOX IMVI melanoma): > 100 µM | GI50 (MCF7 breast): 29.1 µM | TGI (MCF7 breast): > 100 µM | GI50 (SNB-75 CNS): > 100 µM | TGI (SNB-75 CNS): > 100 µM | GI50 (MDA-MB-231 breast): 52.1 µM | TGI (MDA-MB-231 breast): > 100 µM | GI50 (RPMI-8226 leukemia): 51 µM | TGI (RPMI-8226 leukemia): > 100 µM | GI50 (OVCAR-3 ovarian): > 100 µM | TGI (OVCAR-3 ovarian): > 100 µM | GI50 (HOP-92 NSCLC): > 100 µM | TGI (HOP-92 NSCLC): > 100 µM | GI50 (EKVX NSCLC): 35.5 µM | TGI (EKVX NSCLC): > 100 µM | GI50 (NCI/ADR-RES ovarian): > 100 µM | TGI (NCI/ADR-RES ovarian): > 100 µM | GI50 (PC-3 prostate): 75 µM | TGI (PC-3 prostate): > 100 µM | GI50 (SN12C renal): 94.3 µM | TGI (SN12C renal): > 100 µM | GI50 (NCI-H226 lung): 78.9 µM | TGI (NCI-H226 lung): > 100 µM | GI50 (CCRF-CEM leukemia): 50.3 µM | TGI (CCRF-CEM leukemia): > 100 µM | TGI (K-562 leukemia): > 100 µM | GI50 (T-47D breast): > 100 µM | TGI (T-47D breast): > 100 µM | GI50 (SF-268 CNS): > 100 µM | TGI (SF-268 CNS): > 100 µM | GI50 (OVCAR-5 ovarian): 88.9 µM | TGI (OVCAR-5 ovarian): > 100 µM | GI50 (HOP-62 NSCLC): 73.2 µM | TGI (HOP-62 NSCLC): > 100 µM | GI50 (UO-31 renal): > 100 µM | TGI (UO-31 renal): > 100 µM | GI50 (SF-295 CNS): 54.5 µM | TGI (SF-295 CNS): > 100 µM | GI50 (HCT-15 colon): 67.3 µM | TGI (HCT-15 colon): > 100 µM | GI50 (SK-OV-3 ovarian): > 100 µM | TGI (SK-OV-3 ovarian): > 100 µM | GI50 (NCI-H522 lung): 61.9 µM | TGI (NCI-H522 lung): > 100 µM | GI50 (MOLT-4 leukemia): 19 µM | TGI (MOLT-4 leukemia): 63.7 µM
